Activity calls are given as the source filed them. The calls are words filed in the database; no cut-off is given here.
How the values were obtained:
TMD8 [1] = experiment: Induction of apoptosis in human TMD8 cells assessed as early apoptotic cells at 1 uM measured after 48 hrs by annexin-V/FITC and PI staining based flow cytometry analysis (reference value: 9.15%); format: functional
[2] = Subacute toxicity in Balb/C mouse assessed as effect on spleen at 30 mg/kg, iv administered three times in a week for 2 weeks; format: organism-based; settings: in vivo, 336 h
TMD8 [3] = experiment: Induction of cell cycle arrest in human TMD8 cells assessed as accumulation of cells at S phase at 0.25 uM incubated for 24 hrs by PI staining based flow cytometry analysis (reference value: 39.0%); format: functional
[4] = Antitumor activity against human TMD8 cells harbouring […] xenografted in mouse model assessed as body weight change at 10 mg/kg, iv administered three times a week relative to control; format: functional
[5] = Oral bioavailability in Sprague-Dawley rat at 10 mg/kg measured upto 24 hrs by LC/MS/MS analysis; format: ADME, organism-based; settings: Sprague-Dawley, in vivo
TMD8 [6] = experiment: Induction of cell cycle arrest in human TMD8 cells assessed as accumulation of cells at G0-G1 phase at 1.0 uM incubated for 24 hrs by PI staining based flow cytometry analysis (reference value: 40.7%); format: functional
[7] = Subacute toxicity in Balb/C mouse assessed as change in body weight at 10 to 30 mg/kg, iv administered three times in a week for 2 weeks; format: organism-based; settings: in vivo, 336 h, dose 10-30 mg/kg
[8] = Antitumor activity against human TMD8 cells harbouring […] xenografted in mouse model assessed as body weight change at 10 mg/kg, iv administered three times a week in presence of chidamide relative to control; format: functional
[9] = Toxicity in mouse assessed as effect on weight gain at 10 mg/kg, iv administered three times a week; format: organism-based; settings: in vivo
DOHH-2 [10] = experiment: Induction of cell cycle arrest in human DOHH-2 cells assessed as accumulation of cells at G0-G1 phase incubated for 24 hrs by PI staining based flow cytometry analysis; format: functional; settings: dose 0.25-1 µM
TMD8 [11] = experiment: Induction of apoptosis in human TMD8 cells assessed as late apoptotic cells at 2.51 uM measured after 48 hrs by annexin-V/FITC and PI staining based flow cytometry analysis (reference value: 5.13%); format: functional
[12] = Terminal elimination half life in Sprague-Dawley rat at 10 mg/kg, po measured upto 24 hrs by LC/MS/MS analysis; format: ADME, organism-based; settings: in vivo, read-out: beta t1/2 (converted)
DOHH-2 [13] = experiment: Antiproliferative activity against human DOHH-2 cells assessed as inhibition of cell viability measured after 72 hrs by MTT assay; format: functional, cell-based; settings: DOHH-2, 72 h
[14] = molecular target: T1, DNA (cytosine-5)-methyltransferase 1 (Homo sapiens, UniProt P26358); experiment: Inhibition of DNMT1 in human DOHH-2 cells assessed as inhibition of DNA methylation incubated for 48 hrs by Western blot analysis; format: cell-based; settings: dose 10-1000 nM
T1 sequence (P26358 whole entry): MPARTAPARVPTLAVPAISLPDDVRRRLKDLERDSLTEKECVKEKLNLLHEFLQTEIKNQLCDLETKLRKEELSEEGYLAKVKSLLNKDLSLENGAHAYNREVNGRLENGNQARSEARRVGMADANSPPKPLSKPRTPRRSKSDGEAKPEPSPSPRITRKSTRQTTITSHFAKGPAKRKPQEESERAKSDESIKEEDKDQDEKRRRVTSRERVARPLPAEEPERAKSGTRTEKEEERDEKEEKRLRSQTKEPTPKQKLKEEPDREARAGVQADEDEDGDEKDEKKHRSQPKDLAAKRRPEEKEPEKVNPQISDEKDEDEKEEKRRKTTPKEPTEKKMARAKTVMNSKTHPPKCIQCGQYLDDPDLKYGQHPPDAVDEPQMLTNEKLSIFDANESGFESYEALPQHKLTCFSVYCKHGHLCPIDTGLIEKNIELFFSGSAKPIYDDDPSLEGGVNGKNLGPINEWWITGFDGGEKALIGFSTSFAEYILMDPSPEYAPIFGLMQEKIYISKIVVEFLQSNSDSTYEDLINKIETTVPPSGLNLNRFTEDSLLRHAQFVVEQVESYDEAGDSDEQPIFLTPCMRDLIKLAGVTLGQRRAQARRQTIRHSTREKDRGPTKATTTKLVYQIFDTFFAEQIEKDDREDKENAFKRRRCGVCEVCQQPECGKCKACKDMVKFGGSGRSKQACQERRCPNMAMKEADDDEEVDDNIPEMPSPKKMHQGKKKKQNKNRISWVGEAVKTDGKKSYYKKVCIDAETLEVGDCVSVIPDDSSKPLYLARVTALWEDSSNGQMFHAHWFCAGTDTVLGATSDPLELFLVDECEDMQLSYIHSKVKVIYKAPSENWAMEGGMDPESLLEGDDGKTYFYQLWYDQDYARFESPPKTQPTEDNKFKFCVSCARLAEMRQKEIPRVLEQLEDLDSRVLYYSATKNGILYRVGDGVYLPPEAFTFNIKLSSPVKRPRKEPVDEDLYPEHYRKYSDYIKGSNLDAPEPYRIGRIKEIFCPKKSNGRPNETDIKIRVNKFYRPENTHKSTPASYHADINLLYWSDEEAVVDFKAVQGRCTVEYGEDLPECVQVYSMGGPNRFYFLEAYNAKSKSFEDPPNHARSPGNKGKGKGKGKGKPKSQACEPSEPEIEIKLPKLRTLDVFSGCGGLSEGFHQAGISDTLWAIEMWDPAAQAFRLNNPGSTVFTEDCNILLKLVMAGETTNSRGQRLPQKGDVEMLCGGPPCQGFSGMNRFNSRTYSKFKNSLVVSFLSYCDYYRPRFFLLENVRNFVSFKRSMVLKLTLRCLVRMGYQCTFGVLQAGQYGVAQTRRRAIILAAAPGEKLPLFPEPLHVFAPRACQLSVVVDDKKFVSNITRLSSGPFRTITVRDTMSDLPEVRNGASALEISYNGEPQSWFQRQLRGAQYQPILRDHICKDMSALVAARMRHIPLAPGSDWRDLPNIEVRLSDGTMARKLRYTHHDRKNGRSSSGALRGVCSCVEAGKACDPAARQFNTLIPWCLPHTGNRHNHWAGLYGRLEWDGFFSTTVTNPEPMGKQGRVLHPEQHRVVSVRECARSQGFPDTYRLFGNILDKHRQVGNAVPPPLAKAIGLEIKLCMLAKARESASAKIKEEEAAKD

[15] = Antitumor activity against human TMD8 cells harbouring TP53 mutant xenografted in mouse model assessed as body weight change at 10 mg/kg, iv administered three times a week in presence of chidamide relative to control; format: functional
[16] = Downregulation of BAX methylation level in human DOHH-2 cells at 100 nM measured after 6 days by PCR analysis relative to control; format: functional; settings: time 6 day
DOHH-2 [17] = experiment: Induction of apoptosis in human DOHH-2 cells assessed as late apoptotic cells measured after 48 hrs by annexin-V/FITC and PI staining based flow cytometry analysis; format: functional, cell-based; settings: dose 0.25-5 µM
[18] = Subacute toxicity in Balb/C mouse assessed as effect on liver at 30 mg/kg, iv administered three times in a week for 2 weeks; format: organism-based; settings: in vivo, 336 h
[19] = Volume of distribution at steady state in Sprague-Dawley rat at 10 mg/kg, iv measured upto 24 hrs by LC/MS/MS analysis; format: ADME, organism-based; settings: in vivo, read-out: Vdss
DOHH-2 [20] = experiment: Induction of cell cycle arrest in human DOHH-2 cells assessed as accumulation of cells at S phase at 0.25 uM incubated for 24 hrs by PI staining based flow cytometry analysis (reference value: 40.7%); format: functional
TMD8 [21] = experiment: Induction of apoptosis in human TMD8 cells assessed as early apoptotic cells measured after 48 hrs by annexin-V/FITC and PI staining based flow cytometry analysis; format: functional, cell-based; settings: dose 1-10 µM
[22] = AUC (0 to t) in Sprague-Dawley rat at 10 mg/kg, iv measured upto 24 hrs by LC/MS/MS analysis; format: ADME, organism-based; settings: Sprague-Dawley, in vivo
DOHH-2 [23] = experiment: Induction of apoptosis in human DOHH-2 cells assessed as late apoptotic cells at 5 uM measured after 48 hrs by annexin-V/FITC and PI staining based flow cytometry analysis (reference value: 3.66%); format: functional
[24] = Volume of distribution at steady state in Sprague-Dawley rat at 10 mg/kg, po measured upto 24 hrs by LC/MS/MS analysis; format: ADME, organism-based; settings: in vivo
[25] = Upregulation of BAX mRNA level in human DOHH-2 cells assessed as fold change at 300 nM measured after 6 days by PCR analysis; format: functional; settings: time 6 day
TMD8 [26] = experiment: Induction of cell cycle arrest in human TMD8 cells assessed as accumulation of cells at S phase at 1.0 uM incubated for 24 hrs by PI staining based flow cytometry analysis (reference value: 39.0%); format: functional
[27] = molecular target: T1, DNA (cytosine-5)-methyltransferase 1; experiment: Inhibition of DNMT1 (unknown origin) preincubated for 15 mins followed by substrate and [3H-SAM] addition and measured after 60 mins by microbeta analysis
DOHH-2 [28] = experiment: Induction of cell cycle arrest in human DOHH-2 cells assessed as accumulation of cells at S phase at 1.0 uM incubated for 24 hrs by PI staining based flow cytometry analysis (reference value: 40.7%); format: functional
DOHH-2 [29] = experiment: Induction of apoptosis in human DOHH-2 cells assessed as early apoptotic cells at 0.25 uM measured after 48 hrs by annexin-V/FITC and PI staining based flow cytometry analysis (reference value: 5.69%); format: functional
[30] = Subacute toxicity in Balb/C mouse assessed as effect on red blood cells at 30 mg/kg, iv administered three times in a week for 2 weeks; format: organism-based; settings: in vivo, 336 h
[31] = AUC (0 to t) in Sprague-Dawley rat at 10 mg/kg, po measured upto 24 hrs by LC/MS/MS analysis; format: ADME, organism-based; settings: Sprague-Dawley, in vivo
[32] = Antitumor activity against human TMD8 cells harbouring TP53 mutant xenografted in mouse model assessed as tumor inhibition rate at 10 mg/kg, iv administered three times a week in presence of chidamide relative to control; format: functional; set-up: scale not given: the % may be the effect or the level left
[33] = molecular target: DNA (cytosine-5)-methyltransferase 3B (Homo sapiens, UniProt Q9UBC3); experiment: Inhibition of DNMT3B (unknown origin) at 5 uM preincubated for 15 mins followed by substrate and [3H-SAM] addition and measured after 60 mins by microbeta analysis relative to control; settings: time 75.0 min
HeLa = experiment: Antiproliferative activity against human HeLa cells assessed as inhibition of cell viability measured after 72 hrs by MTT assay; format: functional, cell-based
DOHH-2 [34] = experiment: Induction of apoptosis in human DOHH-2 cells assessed as late apoptotic cells at 1 uM measured after 48 hrs by annexin-V/FITC and PI staining based flow cytometry analysis (reference value: 3.66%); format: functional
[35] = Upregulation of FAS mRNA level in human DOHH-2 cells assessed as fold change at 300 nM measured after 6 days by PCR analysis; format: functional; settings: time 6 day

bioavailability [5]: 23.4%
half-life [12]: 21.9 h
inhibition [14]: Active
Vd [19]: 102 L/kg
AUC(0-t) at 24 h [22]: 1010 ng·h/mL
Vdss [24]: 574.7 L/kg
IC50 [27]: 2420 nM
AUC(0-t) at 24 h [31]: 236 ng·h/mL
inhibition [33]: 1.1%
IC50 (HeLa): 3020 nM
SMILES: CN1CCC(Nc2nc(-c3ccnc(F)c3)nc3c2ccn3CCCN2CCCC2)CC1
Activity (TMD8 [1]): 15.7%
Activity [2]: Non-toxic
Activity (TMD8 [3]): 37.8%
Activity [4]: 6.8%
Activity (TMD8 [6]): 32.5%
Activity [7]: Non-toxic
Activity [8]: 1.1%
Activity [9]: Non-toxic
Activity (DOHH-2 [10]): Dose-dependent-effect
Activity (TMD8 [11]): 10.5%
IC50 (DOHH-2 [13]): 190 nM
Activity [15]: -1.5%
Activity [16]: 55.2%
Activity (DOHH-2 [17]): Dose-dependent-effect
Activity [18]: Non-toxic
Activity (DOHH-2 [20]): 37.3%
Activity (TMD8 [21]): Dose-dependent-effect
Activity (DOHH-2 [23]): 34.7%
fold change (FC) [25]: 1.93
Activity (TMD8 [26]): 29.3%
Activity (DOHH-2 [28]): 19.9%
Activity (DOHH-2 [29]): 10.5%
Activity [30]: Non-toxic
Activity [32]: 83.2%
Activity (DOHH-2 [34]): 13.6%
fold change (FC) [35]: 3.05
